Measured values reported in patent US10570122B2, “Compounds with anti-tumoral activity” (AB Science, priority 2015, dated 2020).
pIC50: −log10 of the molar value.

Columns and labels:
HL60 = experiment: CellTiter-Blue cell-based survival/proliferation assay, HL60; settings: Homo sapiens, HL-60, Leukemia cell line HL60, 48 h, read-out: Anti-tumoral activity (measured IC50) HL60
Description: (§1) Cell-Based Proliferation Screening of Compounds
(§2) CellTiter-Blue cell-based survival/proliferation assay (Promega G8080) was performed on tumor cell lines. A total of 1·10^4 cells/well/50 μl were seeded in a 96-wells plate. Treatment was initiated by addition of a 2× drug solution of 1/10 serial dilutions ranging from 0 to 10 μM. Cells were grown for 48 h at 37° C. and then incubated with 10 μl/well of Promega CellTiter-Bleue reagent for 4 h at 37° C. The amount of resorufin dye formed was quantified by its fluorescence emission at 590 nm using a scanning multiwell spectrophotometer (OPTIMA, BMG labtech, France). A blank well without cells was used as a background control for the spectrophotometer.

OPM2 = experiment: CellTiter-Blue cell-based survival/proliferation assay, OPM2; settings: Homo sapiens, OPM-2, Myeloma cell line OPM2, 48 h, read-out: Anti-tumoral activity (measured IC50) OPM2
Description: as §1, §2

A498 = experiment: CellTiter-Blue cell-based survival/proliferation assay, A498; settings: Homo sapiens; A498 kidney tumor cell line, 48 h
Description: as §1, §2

A549 = experiment: CellTiter-Blue cell-based survival/proliferation assay, A549; settings: Homo sapiens; A549 lung tumor cell line, 48 h
Description: as §1, §2

ACHN = experiment: CellTiter-Blue cell-based survival/proliferation assay, ACHN; settings: Homo sapiens; ACHN kidney tumor cell line, 48 h
Description: as §1, §2

AGS = experiment: CellTiter-Blue cell-based survival/proliferation assay, AGS; settings: Homo sapiens; AGS stomach tumor cell line, 48 h
Description: as §1, §2

BT20 = experiment: CellTiter-Blue cell-based survival/proliferation assay, BT20; settings: Homo sapiens, BT-20; BT20 breast tumor cell line, 48 h
Description: as §1, §2

BXPC3 = experiment: CellTiter-Blue cell-based survival/proliferation assay, BXPC3; settings: Homo sapiens, BXPC-3; BXPC3 pancreas tumor cell line, 48 h
Description: as §1, §2

CALU6 = experiment: CellTiter-Blue cell-based survival/proliferation assay, CALU6; settings: Homo sapiens, Calu-6; CALU6 lung tumor cell line, 48 h
Description: as §1, §2

CLS354 = experiment: CellTiter-Blue cell-based survival/proliferation assay, CLS354; settings: Homo sapiens, CLS-354; CLS354_4 head & neck tumor cell line, 48 h
Description: as §1, §2

DLD1 = experiment: CellTiter-Blue cell-based survival/proliferation assay, DLD1; settings: Homo sapiens, DLD-1; DLD_1 colorectal tumor cell line, 48 h
Description: as §1, §2

DU145 = experiment: CellTiter-Blue cell-based survival/proliferation assay, DU145; settings: Homo sapiens, DU-145; DU145 prostate tumor cell line, 48 h
Description: as §1, §2

H1299 = experiment: CellTiter-Blue cell-based survival/proliferation assay, H1299; settings: Homo sapiens, NCI-H1299; H1299 lung tumor cell line, 48 h
Description: as §1, §2

HCT116 = experiment: CellTiter-Blue cell-based survival/proliferation assay, HCT116; settings: Homo sapiens, HCT-116; HCT116 colorectal tumor cell line, 48 h
Description: as §1, §2

HEP2 = experiment: CellTiter-Blue cell-based survival/proliferation assay, HEP2; settings: Homo sapiens, HEp-2; HEP2 head & neck tumor cell line, 48 h
Description: as §1, §2

HEPG2 = experiment: CellTiter-Blue cell-based survival/proliferation assay, HEPG2; settings: Homo sapiens; HEPG2 liver tumor cell line, 48 h
Description: as §1, §2

HGC27 = experiment: CellTiter-Blue cell-based survival/proliferation assay, HGC27; settings: Homo sapiens, HGC-27; HGC27 stomach tumor cell line, 48 h
Description: as §1, §2

MDAMB231 = experiment: CellTiter-Blue cell-based survival/proliferation assay, MDAMB231; settings: Homo sapiens, MDA-MB-231; MDAMB231 breast tumor cell line, 48 h
Description: as §1, §2

MESSA = experiment: CellTiter-Blue cell-based survival/proliferation assay, MESSA; settings: Homo sapiens, MES-SA; MESSA ovary tumor cell line, 48 h
Description: as §1, §2

PANC1 = experiment: CellTiter-Blue cell-based survival/proliferation assay, PANC1; settings: Homo sapiens, PANC-1; PANC_1 pancreas tumor cell line, 48 h
Description: as §1, §2

PC3 = experiment: CellTiter-Blue cell-based survival/proliferation assay, PC3; settings: Homo sapiens, PC-3; PC3 prostate tumor cell line, 48 h
Description: as §1, §2

PLCPRF5 = experiment: CellTiter-Blue cell-based survival/proliferation assay, PLCPRF5; settings: Homo sapiens, PLC-PRF-5; PLC_PRF5 liver tumor cell line, 48 h
Description: as §1, §2

SW579 = experiment: CellTiter-Blue cell-based survival/proliferation assay, SW579; settings: Homo sapiens; SW579 head & neck tumor cell line, 48 h
Description: as §1, §2

TOV112D = experiment: CellTiter-Blue cell-based survival/proliferation assay, TOV112D; settings: Homo sapiens; TOV112D ovary tumor cell line, 48 h
Description: as §1, §2

[1] = test system: panel of about 34 human tumor cell lines; experiment: Cell-based proliferation screening on panel of tumor cell lines; settings: solid tumor cell line, cell line unknown, 48 h, read-out: IC50, solid tumor cell line of column 6 (last section of Table 3)
Description: Compounds of formula (I) were tested against a panel of about 34 human tumor cell lines representing 17 cancer type, namely leukemia (represented by 1 cell line), lymphoma (4 cell lines), myeloma (1 cell line), colorectal (2 cell lines), head and neck (3 cell lines), lung (3 cell lines), melanoma (2 cell lines), pancreas (2 cell lines), prostate (2 cell lines), ovary (2 cell lines) breast (2 cell lines), kidney (2 cell lines), stomach (2 cell lines), liver (2 cell lines), glioblastoma (2 cell lines), osteosarcoma (1 cell line), Ewing Sarcoma (1 cell line).
as §1, §2

SMILES	pIC50 (HL60)	pIC50 (OPM2)	pIC50 (A498)	pIC50 (A549)	pIC50 (ACHN)	pIC50 (AGS)	pIC50 (BT20)	pIC50 (BXPC3)	pIC50 (CALU6)	pIC50 (CLS354)	pIC50 (DLD1)	pIC50 (DU145)	pIC50 (H1299)	pIC50 (HCT116)	pIC50 (HEP2)	pIC50 (HEPG2)	pIC50 (HGC27)	pIC50 (MDAMB231)	pIC50 (MESSA)	pIC50 (PANC1)	further results
CCOCc1ccc(C)c(Nc2ncc(-c3ccc(-c4ccn[nH]4)cc3)o2)c1 [Example 057, 5-(4-(1H-pyrazol-5-yl)phenyl)-N-(5-(ethoxymethyl)-2-methylphenyl)oxazol-2-amine]	6.30 to 7.00	6.30 to 7.00	< 6.00	< 6.00	< 6.00	< 6.00	< 6.00	< 6.00	< 6.00	6.30 to 7.00	< 6.00	< 6.00	< 6.00	< 6.00	6.00 to 6.30	< 6.00	< 6.00	< 6.00	< 6.00	< 6.00	pIC50 (PC3): 6.00 to 6.30; pIC50 (PLCPRF5): < 6.00; pIC50 (SW579): < 6.00; pIC50 (TOV112D): ≥ 7.00; pIC50 [1]: 6.00 to 6.30
CCOCc1ccc(C)c(Nc2ncc(-c3ccc(N4C(=O)NC[C@H]4C)nc3)o2)c1 [Example 058, (R)-1-(5-(2-((5-(ethoxymethyl)-2-methylphenyl)amino)oxazol-5-yl)pyridin-2-yl)-5-methylimidazolidin-2-one]	≥ 7.00	≥ 7.00	< 6.00	< 6.00	< 6.00	< 6.00	< 6.00	< 6.00	< 6.00	≥ 7.00	< 6.00	< 6.00	< 6.00	< 6.00	6.30 to 7.00	< 6.00	< 6.00	< 6.00	< 6.00	< 6.00	pIC50 (PC3): ≥ 7.00; pIC50 (PLCPRF5): < 6.00; pIC50 (SW579): < 6.00; pIC50 (TOV112D): ≥ 7.00; pIC50 [1]: 6.30 to 7.00
CCOCc1cc(Nc2ncc(-c3ccc(N4CCNC4=O)cc3)o2)cc(OCCO)c1 [Example 059, 1-(4-(2-((3-(ethoxymethyl)-5-(2-hydroxyethoxy)phenyl)amino)oxazol-5-yl)phenyl)imidazolidin-2-one]	≥ 7.00	≥ 7.00	< 6.00	< 6.00	< 6.00	< 6.00	< 6.00	6.00 to 6.30	< 6.00	≥ 7.00	< 6.00	< 6.00	< 6.00	≥ 7.00	≥ 7.00	< 6.00	< 6.00	< 6.00	< 6.00	< 6.00	pIC50 (PC3): ≥ 7.00; pIC50 (PLCPRF5): < 6.00; pIC50 (SW579): ≥ 7.00; pIC50 (TOV112D): ≥ 7.00; pIC50 [1]: ≥ 7.00
CCOCc1ccc(C)c(Nc2ncc(-c3ccc(-c4cn[nH]c4)cc3)o2)c1 [Example 060, 5-(4-(1H-pyrazol-4-yl)phenyl)-N-(5-(ethoxymethyl)-2-methylphenyl)oxazol-2-amine]	6.00 to 6.30	6.00 to 6.30	< 6.00	< 6.00	< 6.00	< 6.00	< 6.00	< 6.00	< 6.00	< 6.00	< 6.00	< 6.00	< 6.00	< 6.00	< 6.00	< 6.00	< 6.00	< 6.00	< 6.00	< 6.00	pIC50 (PC3): < 6.00; pIC50 (PLCPRF5): < 6.00; pIC50 (SW579): < 6.00; pIC50 (TOV112D): < 6.00; pIC50 [1]: < 6.00
